Results published in patent US8021672B2, “Development of a Chlamydia sp. vaccine strain” (priority 2006, dated 2011).

Legend:
[1] = tested on: plasmid; conditions: 20 μg ml^−1 in conjunction with imipramine; cited from earlier work
[2] = tested on: McCoy cells; assay: Iodine staining of Chlamydia-infected cells for glycogen accumulation; assay type: cell-based; conditions: Nigg-infected McCoy monolayers, 62.5 μg ml^−1
Source text: Iodine staining of Chlamydia-infected cells. McCoy cells cultured on glass cover slips were infected as described above. At the desired point in the infection the culture medium was removed and the monolayer rinsed several times with 1×HBSS before being fixed and stained with iodine (Schachter J & Dawson, 1978) in order to detect the presence of accumulated glycogen. Stained cells were immediately photographed using a digital camera system and SPOT version 4.0.6 software from Diagnostic Instruments Inc. (Sterling Heights, Mich.).
Plasmid-deficient C. muridarum fail to accumulate glycogen within inclusions.

[3] = tested on: uninfected McCoy cells; assay: Cytotoxicity of novobiocin for uninfected host cells; assay type: cell-based
Protocol: (§1) Cell culture media and reagents were purchased from Mediatech (Hearndon, Va.). Wells containing confluent monolayers of McCoy cells were infected at an approximate MOI of 0.5-1, before being centrifuged for 1 hour at 37° C. The infective inoculum was then removed and replaced with 1× Dulbecco's modified Eagle's medium (DMEM) supplemented with 10% heat-inactivated FBS, gentamicin (20 μg ml^−1) and 0.1 μg ml^−1 cycloheximide. We have previously determined that concentrations in excess of 250 μg ml^−1 are cytotoxic for uninfected McCoy cells. Novobiocin (Sigma, St. Louis, Mo.) was added at the indicated concentrations (up to 250 μg ml^−1) at 4 hours post infection. Infected cells were incubated at 37° C., 5% CO2 for a further 36 hours. Infected cells were harvested into SPG buffer (218 mM sucrose, 3.8 mM KH2PO4, 7.2 mM K2HPO4, 4.9 mM L-glutamate, pH 7.2) at 40 hours post infection, sonicated, and stored at −80° C. Bacteria were subsequently titrated by plaque assay or as inclusion forming units (IFU) using a genus-specific fluorescently tagged monoclonal antibody (Biorad, Hercules, Calif.).

[4] = tested on: C. muridarum strain Nigg; assay: Effect of novobiocin treatment on replication of Chlamydiae (titration by plaque assay); assay type: cell-based; conditions: novobiocin 62.5 μg ml^−1 added 4 hours post infection
Source text: FIG. 1. Effect of novobiocin treatment on replication of C. muridarum strain Nigg. The novobiocin-treated Chlamydiae were harvested and plated by centrifugation to generate individual plaques for titration. The relative infectious yield of strain Nigg at each novobiocin concentration was derived by normalizing the total infectious yield per treated population against the yield from the untreated control. The graph is drawn from a single representative experiment with each point assayed in duplicate.
as §1, with “Infected cells were harvested into SPG buffer (218 mM sucrose, 3.8 mM KH2PO4, 7.2 mM K2HPO4, 4.9 mM L-glutamate, pH 7.2) at 40 hours post infection, sonicated, and stored at −80° C. Bacteria were subsequently titrated by plaque assay or as inclusion forming units (IFU) using a genus-specific fluorescently tagged monoclonal antibody (Biorad, Hercules, Calif.).” left out
Effect of novobiocin treatment on replication of Chlamydiae. […] The titers of novobiocin-treated bacteria were measured by plaque assays (FIG. 1). […]

CO[C@@H]1[C@@H](OC(N)=O)[C@@H](O)[C@H](Oc2ccc3c(O)c(NC(=O)c4ccc(O)c(CC=C(C)C)c4)c(=O)oc3c2C)OC1(C)C [novobiocin]
effect on plasmid copy number [1]: plasmid copy number increases
iodine staining of inclusions under novobiocin treatment [2]: variable iodine staining of inclusions
concentrations cytotoxic for uninfected McCoy cells [3]: > 250 µg/mL
reduction of relative infectious yield of bacteria [4]: at least 100 fold
